Measurements from patent publication US8932997B2, “Anti-accretion agents for drilling fluids” (Lamberti SpA, priority 2008, dated 2015).

Tests used:
[1] = Anti-accretion test (hot roll cells with steel bars and shale chips); conditions: additive amount per 350 ml test fluid as in fluid description; 50 g Arne clay chips; rolled 30 minutes at room temperature
Skeletonema costatum = test: Marine algal growth inhibition test (ISO/DP 10253); assay type: cell-based; conditions: concentrations 0.1 to 100.0 mg/l seawater
Protocol: The test was carried out according the ISO protocol ISO/DP 10253—Water quality—Marine algal growth inhibition test with Skeletonema costatum and Phaeodactylum tricornutum.
A culture of the marine algae Skeletonema costatum was exposed to a series of test concentrations of Additive 1 In addition to a control test, concentrations ranging from 0.1 to 100.0 mg/I seawater were tested. The test lasted for 72 hours, and EC50 (72 hours) was calculated to be higher than 10.0 mg/litre.

Compound | accretion % (wt % of shale accreted on metal surface) [1] | EC50 (72 hours) algal growth inhibition (Skeletonema costatum)
[Cl-].[K+] [KCl, potassium chloride, reference compound] | >70% | 
triethanolamine trioleate [Additive 1] | 10% | higher than 10.0 mg/litre
